For the assay, the target named is T1, Ubiquitin carboxyl-terminal hydrolase 19 (Homo sapiens, UniProt O94966).
T1 sequence (O94966 whole entry): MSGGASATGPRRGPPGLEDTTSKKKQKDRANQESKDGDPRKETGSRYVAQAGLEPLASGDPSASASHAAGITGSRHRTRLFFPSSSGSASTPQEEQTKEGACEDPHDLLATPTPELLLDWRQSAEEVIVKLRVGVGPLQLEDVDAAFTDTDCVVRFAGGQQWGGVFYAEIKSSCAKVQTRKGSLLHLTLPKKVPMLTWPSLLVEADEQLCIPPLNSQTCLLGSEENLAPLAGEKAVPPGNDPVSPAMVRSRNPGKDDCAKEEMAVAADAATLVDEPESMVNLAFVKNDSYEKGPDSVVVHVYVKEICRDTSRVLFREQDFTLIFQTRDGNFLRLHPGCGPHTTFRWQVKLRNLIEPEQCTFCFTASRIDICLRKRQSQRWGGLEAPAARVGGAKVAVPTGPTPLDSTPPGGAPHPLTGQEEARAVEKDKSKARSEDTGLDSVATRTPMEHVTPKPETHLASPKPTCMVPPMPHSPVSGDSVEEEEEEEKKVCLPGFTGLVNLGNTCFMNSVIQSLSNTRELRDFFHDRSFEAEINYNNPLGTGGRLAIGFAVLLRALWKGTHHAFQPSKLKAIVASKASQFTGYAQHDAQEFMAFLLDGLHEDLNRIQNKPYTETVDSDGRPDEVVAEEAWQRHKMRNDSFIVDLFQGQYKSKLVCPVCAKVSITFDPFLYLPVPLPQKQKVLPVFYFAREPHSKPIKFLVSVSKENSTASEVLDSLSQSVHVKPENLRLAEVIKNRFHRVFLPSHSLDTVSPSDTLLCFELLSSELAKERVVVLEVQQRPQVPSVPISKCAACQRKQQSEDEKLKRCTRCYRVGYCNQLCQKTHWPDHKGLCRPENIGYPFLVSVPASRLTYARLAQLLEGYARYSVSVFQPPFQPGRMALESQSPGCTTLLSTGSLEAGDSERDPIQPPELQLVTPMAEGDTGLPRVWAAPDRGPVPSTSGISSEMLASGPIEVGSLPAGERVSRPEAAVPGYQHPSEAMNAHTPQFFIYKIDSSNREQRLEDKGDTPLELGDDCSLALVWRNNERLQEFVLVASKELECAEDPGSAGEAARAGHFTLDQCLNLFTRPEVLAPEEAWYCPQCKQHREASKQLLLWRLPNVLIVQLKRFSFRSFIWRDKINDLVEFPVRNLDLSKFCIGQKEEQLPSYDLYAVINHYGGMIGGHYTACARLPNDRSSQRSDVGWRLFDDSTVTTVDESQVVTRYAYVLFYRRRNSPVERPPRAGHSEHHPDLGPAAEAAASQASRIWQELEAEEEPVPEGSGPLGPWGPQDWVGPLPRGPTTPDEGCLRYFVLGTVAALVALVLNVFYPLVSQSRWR
The assay is described as follows: Inhibition of C-terminal His6-tagged recombinant human USP19 using iso-peptide ubiquitin-Lys-TAMRA as substrate incubated for 30 mins and measured after 90 mins by fluorescent polarization assay.

The IC50 is the concentration at which inhibition is half-maximal. As for `O=C(N1CCC(O)(Cn2cnc3cc(F)c(F)cc3c2=O)C2(CCCC2)C1)N1CCNC[C@H]1c1ccccc1` (some centres undefined), the IC50 is under 500 nM.

Regarding `O=C(N1CCC(O)(Cn2cnc3ccc(F)cc3c2=O)C2(CCCC2)C1)N1CCNC[C@H]1c1ccccc1` (some centres undefined), the IC50 is under 500 nM.

For the molecule `C[C@H](CC1CCCCC1)C(=O)N1CCC(O)(Cn2cc(C(=O)N(C)C)ncc2=O)C2(CCCC2)C1` (some centres undefined), the IC50 was under 500 nM.

For `C[C@H](CC1CCCCC1)C(=O)N1CCC(O)(Cn2cc([S+](C)[O-])c(-c3ccccc3)cc2=O)C2(CCCC2)C1` (some centres undefined), the IC50 is under 500 nM.

Turning to `O=C(N1CCC(O)(Cn2cnc3c(cnn3Cc3ccccc3)c2=O)C2(CCCC2)C1)N1CCNC[C@H]1c1ccccc1` (some centres undefined), the IC50 was under 500 nM.

As to `C[C@H](CC1CCCCC1)C(=O)N1CCC(O)(Cn2cc([S+](C)[O-])c(Cl)cc2=O)C2(CCCC2)C1` (some centres undefined), the IC50 was under 500 nM.

Turning to `C[C@H](CC1CCCCC1)C(=O)N1CCC(O)(Cn2cc(N=S(C)(C)=O)c(-c3ccccc3)cc2=O)C2(CCCC2)C1` (some centres undefined), the IC50 was under 500 nM.

For `C[C@H](CC(F)(F)F)C(=O)N1CCC(O)(Cn2cc(N=S(C)(C)=O)c(-c3ccccc3)cc2=O)C2(CCCC2)C1` (some centres undefined), the IC50 was under 500 nM.

For the molecule `CN(C)C(=O)c1cn(CC2(O)CCN(C(=O)N(C)CC3CCCCC3)CC23CCCC3)c(=O)cc1-c1ccccc1` (centres undefined), the half-inhibitory concentration (IC50) was under 500 nM.

`CCn1ncc2c(=O)n(CC3(O)CCN(C(=O)[C@H](C)CC4CCCCC4)CC34CCCC4)cnc21` (some centres undefined): the IC50 is under 500 nM.

With `O=C(NCc1ccccc1)N1CCC(O)(Cn2cnc(-c3ccccc3)cc2=O)C2(CCCC2)C1` (centres undefined), the IC50 is under 500 nM.

On to `CC(=O)N1CCN(CC2(O)CCN(C(=O)[C@H](C)CC3CCCCC3)CC23CCCC3)C(=O)C1` (some centres undefined), for which the concentration for half-maximal inhibition (IC50) is under 500 nM.

For `C[C@H](CC1CCCCC1)C(=O)N1CCC(O)(Cn2cnc3ccc(F)cc3c2=O)C2(CCCC2)C1` (some centres undefined), the IC50 was under 500 nM.

`C[S+]([O-])c1cn(CC2(O)CCN(C(=O)N3CCNC[C@H]3c3ccccc3)CC23CCCC3)c(=O)cc1-c1ccccc1` (some centres undefined): the half-inhibitory concentration (IC50) is under 500 nM.

In the case of `O=C(N1CC[C@@](O)(Cn2ccc3ncncc3c2=O)C2(CCCC2)C1)N1CCNC[C@H]1c1ccccc1`, the IC50 was under 500 nM.

Regarding `CN(C)C(=O)c1cn(CC2(O)CCN(C(=O)NCc3ccccc3)CC23CCCC3)c(=O)cc1-c1ccccc1` (centres undefined), the IC50 is under 500 nM.

On to `C[C@H](CC1CCCCC1)C(=O)N1CCC(O)(Cn2cc(C(=O)N3CCNCC3)ncc2=O)C2(CCCC2)C1` (some centres undefined), for which the IC50 is under 500 nM.

On to `C[C@H](CC1CCCCC1)C(=O)N1CCC(O)(Cn2cnc3cc(F)c(Cl)cc3c2=O)C2(CCCC2)C1` (some centres undefined), for which the IC50 was under 500 nM.

`CSc1ncc2c(=O)n(CC3(O)CCN(C(=O)[C@H](C)CC4CCCCC4)CC34CCCC4)cnc2n1` (some centres undefined): the IC50 is under 500 nM.

Take `O=C(NCc1ccccc1)N1CCC(O)(Cn2ccc(-c3ccccc3)cc2=O)C2(CCCC2)C1` (centres undefined): the IC50 is under 500 nM.

In the case of `O=C(N1CCC(O)(Cn2cnc3ccc(F)cc3c2=O)C2(CCCC2)C1)N1CCOC[C@H]1c1ccccc1` (some centres undefined), the IC50 is under 500 nM.

With `CSc1cn(CC2(O)CCN(C(=O)[C@H](C)CC3CCCCC3)CC23CCCC3)c(=O)cc1Cl` (some centres undefined), the IC50 is under 500 nM.

For the molecule `C[C@H](CC1CCCCC1)C(=O)N1CCC(O)(Cn2cnc3cc(F)c(F)cc3c2=O)C2(CCCC2)C1` (some centres undefined), the IC50 is under 500 nM.

Take `C[C@H](CC1CCCCC1)C(=O)N1CCC(O)(Cn2cnc3c(cnn3-c3ccccc3)c2=O)C2(CCCC2)C1` (some centres undefined): the IC50 is under 500 nM.

With `C[C@H](CC1CCCCC1)C(=O)N1CCC(O)(CN2CCN(c3ccccc3)CC2=O)C2(CCCC2)C1` (some centres undefined), the IC50 was under 500 nM.

With `C[C@H](CC1CCCCC1)C(=O)N1CCC(O)(Cn2cc(S(C)(=N)=O)c(Cl)cc2=O)C2(CCCC2)C1` (some centres undefined), the IC50 is under 500 nM.

Consider `O=C1CN(c2ccccc2)CCN1CC1(O)CCN(C(=O)NCc2ccccc2)CC12CCCC2` (centres undefined), for which the 50% inhibitory concentration (IC50) is under 500 nM.

For `C[C@H](CC1CCCCC1)C(=O)N1CCC(O)(Cn2cc(S(C)(=N)=O)c(-c3ccccc3)cc2=O)C2(CCCC2)C1` (some centres undefined), the IC50 was under 500 nM.

Turning to `O=C(N1CCC(O)(Cn2cnc3cc(F)c(F)cc3c2=O)C2(CCCC2)C1)N1CCOC[C@H]1c1ccccc1` (some centres undefined), the concentration for half-maximal inhibition (IC50) was under 500 nM.

Consider `C[C@H](CC1CCCCC1)C(=O)N1CCC(O)(Cn2cc(S(C)(=O)=O)c(-c3ccccc3)cc2=O)C2(CCCC2)C1` (some centres undefined), for which the IC50 is under 500 nM.

For `C[C@H](CC1CCCCC1)C(=O)N1CCC(O)(Cn2cc(S(C)(=O)=O)c(Cl)cc2=O)C2(CCCC2)C1` (some centres undefined), the IC50 was under 500 nM.

Consider `Cn1ncc2c(=O)n(CC3(O)CCN(C(=O)N4CCNC[C@H]4c4ccccc4)CC34CCCC4)cnc21` (some centres undefined), for which the IC50 was under 500 nM.

As to `CSc1cn(CC2(O)CCN(C(=O)[C@H](C)CC3CCCCC3)CC23CCCC3)c(=O)cc1-c1ccccc1` (some centres undefined), the concentration for half-maximal inhibition (IC50) is under 500 nM.

Consider `C[C@H](CC1CCCCC1)C(=O)N1CCC(O)(CN2CCN(C(=O)OC(C)(C)C)CC2=O)C2(CCCC2)C1` (some centres undefined), for which the IC50 is under 500 nM.

With `C[C@H](CC1CCCCC1)C(=O)N1CCC(O)(Cn2cc(Cl)ncc2=O)C2(CCCC2)C1` (some centres undefined), the IC50 is under 500 nM.

As for `COC(=O)c1cn(CC2(O)CCN(C(=O)[C@H](C)CC3CCCCC3)CC23CCCC3)c(=O)cn1` (some centres undefined), the IC50 is under 500 nM.

Take `CN(C)C(=O)C1CN(C[C@]2(O)CCN(C(=O)[C@H](CO)CC3CCCCC3)CC2(C)C)C(=O)CC1c1ccccc1` (some centres undefined): the IC50 was under 500 nM.

In the case of `C[C@H](CC1CCCCC1)C(=O)N1CCC(O)(Cn2cnc3ccc(Cl)cc3c2=O)C2(CCCC2)C1` (some centres undefined), the IC50 is under 500 nM.

In the case of `C[C@H](CC(F)(F)F)C(=O)N1CCC(O)(CN2CCN(c3ccccn3)CC2=O)C2(CCCC2)C1` (some centres undefined), the IC50 is under 500 nM.

As to `O=C(N1CCC(O)(Cn2ccc3ccncc3c2=O)C2(CCCC2)C1)N1CCNC[C@H]1c1ccccc1` (some centres undefined), the 50% inhibitory concentration (IC50) was under 500 nM.

Consider `COc1ccc2c(=O)n(CC3(O)CCN(C(=O)[C@H](C)CC4CCCCC4)CC34CCCC4)ccc2c1` (some centres undefined), for which the IC50 is at most 5000 nM.

For `O=C(N1CC[C@@](O)(Cn2cnc(-c3ccccc3)cc2=O)C2(CCCC2)C1)N1CCNC[C@@H]1c1ccccc1`, the IC50 was under 500 nM.

As to `CSc1ncc2c(=O)n(C[C@]3(O)CCN(C(=O)N4CCNC[C@H]4c4ccccc4)CC34CCCC4)ccc2n1`, the IC50 is under 500 nM.

With `CN(C)C(=O)c1cn(CC2(O)CCN(C(=O)N3CCC(C(F)(F)F)C3)CC23CCCC3)c(=O)cc1-c1ccccc1` (centres undefined), the IC50 was under 500 nM.

Regarding `CSc1ncc2c(=O)n(CC3(O)CCN(C(=O)[C@H](C)CC4CCCCC4)CC34CCCC4)n(C)c2n1` (some centres undefined), the IC50 is under 500 nM.

Regarding `CSc1cn(CC2(O)CCN(C(=O)N3CCNC[C@H]3c3ccccc3)CC23CCCC3)c(=O)cc1-c1ccccc1` (some centres undefined), the IC50 was under 500 nM.

As for `CS(=O)(=O)c1cn(CC2(O)CCN(C(=O)N3CCNC[C@H]3c3ccccc3)CC23CCCC3)c(=O)cc1-c1ccccc1` (some centres undefined), the IC50 is under 500 nM.

Regarding `C[C@H](CC1CCCCC1)C(=O)N1CCC(O)(Cn2cc(Br)ncc2=O)C2(CCCC2)C1` (some centres undefined), the IC50 was under 500 nM.

For the molecule `C[C@H](CC1CCCCC1)C(=O)N1CCC(O)(CN2CCOCC2=O)C2(CCCC2)C1` (some centres undefined), the IC50 was under 500 nM.

Consider `Cc1cn(CC2(O)CCN(C(=O)N3CCNC[C@H]3c3ccccc3)CC23CCCC3)c(=O)cn1` (some centres undefined), for which the IC50 is under 500 nM.

With `CSc1ncc2c(=O)n(CC3(O)CCN(C(=O)[C@H](C)CC(F)(F)F)CC34CCCC4)ccc2n1` (some centres undefined), the IC50 was under 500 nM.

Turning to `CS(=N)(=O)c1cn(CC2(O)CCN(C(=O)N3CCOC[C@H]3c3ccccc3)CC23CCCC3)c(=O)cc1-c1ccccc1` (some centres undefined), the IC50 is under 500 nM.

For the molecule `CS(=N)(=O)c1cn(CC2(O)CCN(C(=O)N3CCNC[C@H]3c3ccccc3)CC23CCCC3)c(=O)cc1-c1ccccc1` (some centres undefined), the IC50 is under 500 nM.

In the case of `CSc1ncc2c(=O)n(CC3(O)CCN(C(=O)[C@H](C)CC4CCCCC4)CC34CCCC4)ccc2n1` (some centres undefined), the IC50 is under 500 nM.

`C[C@H](CC(F)(F)F)C(=O)N1CCC(O)(CN2CCN(c3ccccc3)CC2=O)C2(CCCC2)C1` (some centres undefined): the IC50 is under 500 nM.

On to `O=C(N1CCC(O)(Cn2cnc3c(cnn3-c3ccccc3)c2=O)C2(CCCC2)C1)N1CCNC[C@H]1c1ccccc1` (some centres undefined), for which the IC50 was under 500 nM.

In the case of `C[C@H](CC1CCCCC1)C(=O)N1CCC(O)(Cn2ccc3ccncc3c2=O)C2(CCCC2)C1` (some centres undefined), the IC50 was under 500 nM.

`O=C(N1CCC(O)(Cn2cnc3c(cnn3C3CC3)c2=O)C2(CCCC2)C1)N1CCNC[C@H]1c1ccccc1` (some centres undefined): the IC50 was under 500 nM.

Consider `CN(C)C(=O)c1cn(CC2(O)CCN(C(=O)N(C)Cc3ccccc3)CC23CCCC3)c(=O)cc1-c1ccccc1` (centres undefined), for which the IC50 is under 500 nM.

(Values after ChEMBL document CHEMBL5052842, “Pharmaceutical compounds and their use as inhibitors of ubiquitin specific protease 19 (usp19)” (2020).)
